# Assay results published in ChEMBL document CHEMBL3507680, “University of Dundee, Gates Library screen for HepG2 cell viability”.
# Assay: Human HepG2 cell viability assay in 384 well format
# Format: toxicity, cell-based
# Parameters: dose 125 nL, time 70.5 hour; cytotoxicity at 70.5 h: concentration not given beside the values
# Details: HepG2 cells, read-out: Inhibition
row,SMILES,cytotoxicity at 70.5 h [%]
1,Cn1cnc(S(=O)(=O)N2CCOCC2)c1Cl,-3.62
2,CN1CCN(S(=O)(=O)c2ncn(C)c2Cl)CC1,-5.44
3,CC(C)N1CCN(S(=O)(=O)c2ncn(C)c2Cl)CC1,-4.74
4,O=C1NCCCCC1Sc1nnc(N2CCCC2)n1C1CC1 (stereo unspecified),6.7
5,CC1CCN(CCNC(=O)C2CCN(C(=O)C(C)(C)C)CC2)CC1,-3.74
6,CC(=O)N1CCC(C(=O)NCCN2CCCC(C)C2)CC1 (stereo unspecified),-7.29
7,COc1ccc(NC(C)C(=O)N2CCCC2)cn1 (stereo unspecified),-1.03
8,NC(=O)COc1ccc(CNC(=O)CN2CCc3ccccc32)cc1,0.272
9,CC(=O)NCCNC(=O)Nc1cccc(Cl)c1SC(F)F,-0.195
10,CC(C#N)CSc1ccccc1NCC(=O)NC(=O)NC(C)(C)C (stereo unspecified),-2.56
11,CC(C#N)CSc1ccccc1NCC(=O)NCc1cccs1 (stereo unspecified),0.858
12,CCNC(=O)CNC(=O)Nc1cccc(Cl)c1SC(F)F,0.0144
13,NS(=O)(=O)N1CCc2ccc(NC(=O)Cc3ccccc3F)cc21,22.4
14,Cc1nc(C2CCCN(C(=O)c3csc(C)n3)C2)no1 (stereo unspecified),4.29
15,Cc1nc(CC(=O)N2CCOC(c3nc(C(C)(C)C)n[nH]3)C2)cs1 (stereo unspecified),20.6
16,Cc1ccn(-c2ccccc2NCc2cscn2)n1,10.6
17,O=C(Nc1ccnc(OC2CCOC2)c1)c1ccc(F)cc1Cl (stereo unspecified),0.257
18,CN(C)CCN(Cc1ccc(Cl)cc1)C(=O)c1cnccn1,3.24
19,Cc1cc(CNc2ccc(C(F)(F)F)cc2)no1,-7.03
20,Cn1cc(CNC2CCOCC2)c(-c2cc3ccccc3o2)n1,-5.58
21,CCOc1ccc(C(F)(F)F)cc1NCc1cc(C)on1,26.7
22,Cn1[nH]c(C2CCC2)c(-c2ccc3c(c2)OCO3)c1=N,-3.82

row,SMILES,cytotoxicity at 70.5 h [%]
1,CCOc1ccc(C(F)(F)F)cc1NCc1nc(C)c(C)o1,-2.62
2,O=C(Cn1cnnn1)NCC1(O)CCCc2ccccc21 (stereo unspecified),-6.92
3,Cn1cc(C(C)(O)CNC(=O)c2cc(Br)cn2C)cn1 (stereo unspecified),7.26
4,COCCN1CCN(Cc2nnc(-c3occc3C)o2)CC1,-6.39
5,Cn1cc(Br)cc1C(=O)NCC(C)(O)c1ccsc1 (stereo unspecified),-9.72
6,CC(C)N(CCS(C)(=O)=O)Cc1csc(Cc2ccc(Cl)cc2)n1,3.51
7,CC(C)N(CCS(C)(=O)=O)Cc1csc(-c2ccccc2F)n1,-13.1
8,O=C(CN1CCOC(Cn2cncn2)C1)NC(C1CC1)C1CC1 (stereo unspecified),9.73
9,c1ccc(N2CCC(NCCc3ccc(-n4cccn4)cc3)CC2)nc1,21.5
10,CSCC(CCO)NC(=O)c1cccc(F)c1Cl (stereo unspecified),24.5
11,Cn1nc(Br)c2c(NCCNc3ncccn3)ncnc21,-21.3
12,Cc1cc(S(C)(=O)=O)c(C)c(S(=O)(=O)N2CCCC(C)C2)c1 (stereo unspecified),-7.71
13,Cn1nc2c(cc1=O)CN(CCOc1ccccc1C#N)CC2,35
14,CC(C)n1nc2c(cc1=O)CN(CCOc1ccc(C#N)cc1)CC2,-12.5
15,COCC(=O)N1CCN(Cc2cc(F)cc(Br)c2)CC1,-6.59
16,CCc1n[nH]c(=O)c(C(=O)N2CCSCC2)c1CC,-9.39
17,Cc1ccc(C(C)NC(=O)N2CCNC(=O)CC2)cc1F (stereo unspecified),-17.7
18,Cc1nccn1-c1ccc(C(C)Nc2cnn(C)c(=O)c2Cl)cc1 (stereo unspecified),9.7
19,CCC(NC(=O)NCc1cccc(N(C)C)n1)c1ccccc1OC (stereo unspecified),-7.5
20,CCCC(NC(=O)NCc1cccc(N(C)C)n1)c1ccccn1 (stereo unspecified),-18.8
21,COCC(NC(=O)c1cn(-c2cccc(Cl)c2F)nn1)C1CC1 (stereo unspecified),-0.579
22,COCC(C)(C#N)NC(=O)c1cn(-c2cccc(Cl)c2F)nn1 (stereo unspecified),-10.4

row,SMILES,cytotoxicity at 70.5 h [%]
1,COCCCNC(=O)CN1CCC(c2ccccc2)C1 (stereo unspecified),-7.32
2,CSCC(CCO)NC(=O)c1cccc(Cl)c1F (stereo unspecified),-16.7
3,COC(=O)CN1CCSC(c2ccccc2)C1 (stereo unspecified),-13.2
4,COCCOCC(=O)Nc1cccc(CN(C)C(C)=O)c1,27.5
5,O=C(NCC1CCCO1)c1csc(Cc2ccccc2)n1 (stereo unspecified),50.7
6,COc1ccccc1-c1cc(NC(=O)CC2CCS(=O)(=O)C2)[nH]n1 (stereo unspecified),-9.57
7,COCCN1CCN(CC(=O)N(C)Cc2ccsc2)CC1C (stereo unspecified),-7.6
8,CS(=O)(=O)CCNCc1ccc(OCc2ccccn2)cc1,0.418
9,C[S+]([O-])CCNCc1ccc(OCc2cscn2)cc1 (stereo unspecified),1.77
10,Cc1ccc(-n2ccnc2)c(C(=O)NCCOCC2CCCO2)c1 (stereo unspecified),-1.48
11,CN1CCC(NC(=O)Nc2ccc(F)c(-n3cccc3)c2)C1=O (stereo unspecified),-12.5
12,CN1CCC(NC(=O)Nc2ccc(Br)c(F)c2)C1=O (stereo unspecified),1.65
13,CC(C)n1cc2cc(NC(=O)CCS(C)(=O)=O)ccc2n1,23.6
14,O=C1N(CC2CC2)C2(CCSCC2)NC12CCCC2,30.4
15,O=C(c1cccc2cc[nH]c12)N1CCC2(CCOC2)C1 (stereo unspecified),1.91
16,CC(=O)Nc1ccc2nn(C(C)C)cc2c1,-8.47
17,CN(C)c1nccc(CNS(=O)(=O)c2ccc(F)c(Cl)c2)n1,-5.5
18,Cc1cc(F)c(S(=O)(=O)NCc2ccnc(N(C)C)n2)cc1F,29.1
19,COCCN1CCN(CC(=O)N(C)Cc2cccc(F)c2)CC1C (stereo unspecified),0.133
20,O=C(c1cccc2[nH]ccc12)N1CCC2(CCOC2)C1 (stereo unspecified),2.34
21,COCCN1CCN(CC(=O)N(C)Cc2ccsc2)CC1,-6.03
22,C1CCC(NCCN2CCOCC2)C1,16.9

row,SMILES,cytotoxicity at 70.5 h [%]
1,CCN(CC)C(=O)N1CCN(C2=NCC(C)S2)CC1 (stereo unspecified),-9.33
2,COCCOc1ccccc1CNCC1COC2(CCCC2)O1 (stereo unspecified),0.252
3,O=C(COCC1CC1)Nc1cc(-c2ccc(Br)s2)n[nH]1,-5.77
4,Cc1cc(C(=O)NCCN2CCCCC2)nn1C(C)(C)C,-18
5,CC(NC(=O)NCc1cccnc1N(C)C)c1ccc(F)cc1 (stereo unspecified),-23.2
6,O=C(NCc1cccnc1N1CCCCC1)c1ccc2[nH]nnc2c1,41.6
7,CC(=O)NCC1CCCN(C(=O)Cc2c(C)noc2C)C1 (stereo unspecified),-22.9
8,Cc1noc(C)c1CC(=O)N1CCCC(n2ccnc2C)C1 (stereo unspecified),-15.6
9,CN(CCc1ccncc1)c1cnn(C)c(=O)c1Br,-24.9
10,CN(C)c1cc2c(nn1)CCN(C(=O)c1ccc(-n3cccn3)nc1)C2,-25.2
11,CNc1cc2c(nn1)CCN(C(=O)c1ccc(-n3cccn3)nc1)C2,-14.4
12,CC(CNC(=O)c1cnc[nH]1)Oc1ccc(Cl)cc1 (stereo unspecified),-22.4
13,CN(CCNC(=O)Nc1nccs1)Cc1ccc(F)cc1,-13.1
14,NC(=O)c1cc(C2CCCN(CCc3ccc4c(c3)CCO4)C2)n[nH]1 (stereo unspecified),-19
15,Cc1nc(COc2ccc(N(C)S(C)(=O)=O)cc2)sc1C,48
16,Cc1ncsc1C(=O)OCCN1CCCc2ccccc21,-22.3
17,Cc1nnc(-c2cccc(C#N)c2)n1C1CCCN(C(C)C)C1=O (stereo unspecified),-9.5
18,CN(Cc1cnccn1)c1cncc(Br)c1,-22
19,Cc1cc(Cl)c(C)c(S(=O)(=O)N2CCN(Cc3ccccn3)CC2)c1Cl,40.2
20,Cc1cc(C(=O)NCCN2CCC(C)CC2)nn1C(C)(C)C,-15.3
